PubChem BioAssay (NCI)
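Interpolation was linear, between the two tested concentrations surrounding the appropriate level; five concentrations were tested over 48 hours in 96-well plates. Here, GI50 denotes the concentration required for 50% inhibition of growth. TGI is the concentration that stops growth completely.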

Legend:
Test in all cases: DTP human tumour cell line panel, 48 h
786-0 renal = test system: 786-0 renal
A498 renal = test system: A498 renal
A549 NSCLC = test system: A549 NSCLC
ACHN renal = test system: ACHN renal
BT-549 breast = test system: BT-549 breast
CAKI-1 renal = test system: CAKI-1 renal
CCRF-CEM leukemia = test system: CCRF-CEM leukemia
COLO 205 colon = test system: COLO 205 colon
DU-145 prostate = test system: DU-145 prostate
EKVX NSCLC = test system: EKVX NSCLC
HCC-2998 colon = test system: HCC-2998 colon
HCT-116 colon = test system: HCT-116 colon
HCT-15 colon = test system: HCT-15 colon
HL-60(TB) leukemia = test system: HL-60(TB) leukemia
HOP-62 NSCLC = test system: HOP-62 NSCLC
HOP-92 NSCLC = test system: HOP-92 NSCLC
HS 578T breast = test system: HS 578T breast
HT29 colon = test system: HT29 colon
IGROV1 ovarian = test system: IGROV1 ovarian
K-562 leukemia = test system: K-562 leukemia
KM12 colon = test system: KM12 colon
LOX IMVI melanoma = test system: LOX IMVI melanoma
M14 melanoma = test system: M14 melanoma
MALME-3M melanoma = test system: MALME-3M melanoma
MCF7 breast = test system: MCF7 breast
MDA-MB-231 breast = test system: MDA-MB-231 breast
MDA-MB-435 = test system: MDA-MB-435
MDA-MB-468 breast = test system: MDA-MB-468 breast
MOLT-4 leukemia = test system: MOLT-4 leukemia
NCI-H226 lung = test system: NCI-H226 lung
NCI-H23 lung = test system: NCI-H23 lung
NCI-H460 lung = test system: NCI-H460 lung
NCI-H522 lung = test system: NCI-H522 lung
OVCAR-3 ovarian = test system: OVCAR-3 ovarian
OVCAR-4 ovarian = test system: OVCAR-4 ovarian
OVCAR-5 ovarian = test system: OVCAR-5 ovarian
OVCAR-8 ovarian = test system: OVCAR-8 ovarian
PC-3 prostate = test system: PC-3 prostate
RPMI-8226 leukemia = test system: RPMI-8226 leukemia
RXF 393 renal = test system: RXF 393 renal
SF-268 CNS = test system: SF-268 CNS
SF-295 CNS = test system: SF-295 CNS
SF-539 CNS = test system: SF-539 CNS
SK-MEL-2 melanoma = test system: SK-MEL-2 melanoma
SK-MEL-28 melanoma = test system: SK-MEL-28 melanoma
SK-MEL-5 melanoma = test system: SK-MEL-5 melanoma
SK-OV-3 ovarian = test system: SK-OV-3 ovarian
SN12C renal = test system: SN12C renal
SNB-19 CNS = test system: SNB-19 CNS
SNB-75 CNS = test system: SNB-75 CNS
SR leukemia = test system: SR leukemia
SW-620 colon = test system: SW-620 colon
T-47D breast = test system: T-47D breast
TK-10 renal = test system: TK-10 renal
U251 CNS = test system: U251 CNS
UACC-257 melanoma = test system: UACC-257 melanoma
UACC-62 melanoma = test system: UACC-62 melanoma
UO-31 renal = test system: UO-31 renal

CC1=C(C)C(=O)C(NCCN2CCOCC2)=C(Br)C1=O
GI50 (786-0 renal): 17.8 µM | TGI (786-0 renal): 32.1 µM | GI50 (A498 renal): 19.2 µM | TGI (A498 renal): 34 µM | GI50 (A549 NSCLC): 17.4 µM | TGI (A549 NSCLC): 34 µM | GI50 (ACHN renal): 13.8 µM | TGI (ACHN renal): 26.8 µM | GI50 (BT-549 breast): 13.7 µM | TGI (BT-549 breast): 26.6 µM | GI50 (CAKI-1 renal): 10.7 µM | TGI (CAKI-1 renal): 23.3 µM | GI50 (CCRF-CEM leukemia): 3.44 µM | TGI (CCRF-CEM leukemia): > 100 µM | GI50 (COLO 205 colon): 17.9 µM | TGI (COLO 205 colon): 33.6 µM | GI50 (DU-145 prostate): 12.7 µM | TGI (DU-145 prostate): 25.7 µM | GI50 (EKVX NSCLC): 12.8 µM | TGI (EKVX NSCLC): 25.9 µM | GI50 (HCC-2998 colon): 15.3 µM | TGI (HCC-2998 colon): 28.7 µM | GI50 (HCT-116 colon): 2.93 µM | TGI (HCT-116 colon): 10.9 µM | GI50 (HCT-15 colon): 15.9 µM | TGI (HCT-15 colon): 30.9 µM | GI50 (HL-60(TB) leukemia): 2.46 µM | TGI (HL-60(TB) leukemia): 7.24 µM | GI50 (HOP-62 NSCLC): 14.6 µM | TGI (HOP-62 NSCLC): 28.1 µM | GI50 (HOP-92 NSCLC): 13.3 µM | TGI (HOP-92 NSCLC): 28 µM | GI50 (HS 578T breast): 9.04 µM | TGI (HS 578T breast): 34.6 µM | GI50 (HT29 colon): 16 µM | TGI (HT29 colon): 31.3 µM | GI50 (IGROV1 ovarian): 10.5 µM | TGI (IGROV1 ovarian): 22.9 µM | GI50 (K-562 leukemia): 3.3 µM | TGI (K-562 leukemia): 61.9 µM | GI50 (KM12 colon): 16.7 µM | TGI (KM12 colon): 39.6 µM | GI50 (LOX IMVI melanoma): 2.33 µM | TGI (LOX IMVI melanoma): 8.36 µM | GI50 (M14 melanoma): 13.6 µM | TGI (M14 melanoma): 26.7 µM | GI50 (MALME-3M melanoma): 2.25 µM | TGI (MALME-3M melanoma): 5.37 µM | GI50 (MCF7 breast): 3.66 µM | TGI (MCF7 breast): 15.2 µM | GI50 (MDA-MB-231 breast): 5.65 µM | TGI (MDA-MB-231 breast): 18.7 µM | GI50 (MDA-MB-435): 1.81 µM | TGI (MDA-MB-435): 3.35 µM | GI50 (MDA-MB-468 breast): 0.222 µM | TGI (MDA-MB-468 breast): 0.885 µM | GI50 (MOLT-4 leukemia): 5.35 µM | TGI (MOLT-4 leukemia): 32.8 µM | GI50 (NCI-H226 lung): 12.1 µM | TGI (NCI-H226 lung): 26.7 µM | GI50 (NCI-H23 lung): 3.84 µM | TGI (NCI-H23 lung): 16.3 µM | GI50 (NCI-H460 lung): 16.1 µM | TGI (NCI-H460 lung): 34.2 µM | GI50 (NCI-H522 lung): 3.01 µM | TGI (NCI-H522 lung): 11.7 µM | GI50 (OVCAR-3 ovarian): 2.1 µM | TGI (OVCAR-3 ovarian): 7.16 µM | GI50 (OVCAR-4 ovarian): 5.02 µM | TGI (OVCAR-4 ovarian): 17.6 µM | GI50 (OVCAR-5 ovarian): 6.43 µM | TGI (OVCAR-5 ovarian): 19.3 µM | GI50 (OVCAR-8 ovarian): 3.84 µM | TGI (OVCAR-8 ovarian): 15.8 µM | GI50 (PC-3 prostate): 16.9 µM | TGI (PC-3 prostate): 50.6 µM | GI50 (RPMI-8226 leukemia): 13.9 µM | TGI (RPMI-8226 leukemia): 55 µM | GI50 (RXF 393 renal): 12.7 µM | TGI (RXF 393 renal): 25.3 µM | GI50 (SF-268 CNS): 12.8 µM | TGI (SF-268 CNS): 32 µM | GI50 (SF-295 CNS): 17.8 µM | TGI (SF-295 CNS): 31.9 µM | GI50 (SF-539 CNS): 17 µM | TGI (SF-539 CNS): 31.5 µM | GI50 (SK-MEL-2 melanoma): 11.7 µM | TGI (SK-MEL-2 melanoma): 24.2 µM | GI50 (SK-MEL-28 melanoma): 14.5 µM | TGI (SK-MEL-28 melanoma): 28 µM | GI50 (SK-MEL-5 melanoma): 11.6 µM | TGI (SK-MEL-5 melanoma): 23.8 µM | GI50 (SK-OV-3 ovarian): 12.5 µM | TGI (SK-OV-3 ovarian): 25.2 µM | GI50 (SN12C renal): 14.9 µM | TGI (SN12C renal): 28.2 µM | GI50 (SNB-19 CNS): 16.3 µM | TGI (SNB-19 CNS): 30.5 µM | GI50 (SNB-75 CNS): 18.5 µM | TGI (SNB-75 CNS): 34.2 µM | GI50 (SR leukemia): 19.2 µM | TGI (SR leukemia): 66.7 µM | GI50 (SW-620 colon): 2.94 µM | TGI (SW-620 colon): 14 µM | GI50 (T-47D breast): 2.01 µM | TGI (T-47D breast): 4.74 µM | GI50 (TK-10 renal): 19.2 µM | TGI (TK-10 renal): 33.3 µM | GI50 (U251 CNS): 12 µM | TGI (U251 CNS): 25.2 µM | GI50 (UACC-257 melanoma): 2.55 µM | TGI (UACC-257 melanoma): 7 µM | GI50 (UACC-62 melanoma): 5.78 µM | TGI (UACC-62 melanoma): 18.4 µM | GI50 (UO-31 renal): 11 µM | TGI (UO-31 renal): 23.2 µM
